What was measured:
Assay in all cases: relative viability (nuclei count vs DMSO), 5 days (fraction); higher = more cells survive
Masitinib + Phenformin = compound: Cc1ccc(NC(=O)c2ccc(CN3CCN(C)CC3)cc2)cc1Nc1nc(-c2cccnc2)cs1 [Masitinib] + N=C(N)NC(=N)NCCc1ccccc1 [Phenformin] (partner 250 µM)
Summary of the method: (§1)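 For relative viability, nuclei counts in treated wells were divided by those in vehicle wells. Lung cancer cell lines had been pin-tool dosed in 1536-well plates the day after seeding and cultured for 5 days, then fixed and stained in one step (final 0.05% Triton X-100, 1% formaldehyde, 1 ug/ml Hoechst) and imaged at 4×. Doses were one drug alone or a fixed anchor-drug dose plus five library-drug doses (not always all listed) in √10 steps, and values are duplicate-plate medians.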

Masitinib = compound: Cc1ccc(NC(=O)c2ccc(CN3CCN(C)CC3)cc2)cc1Nc1nc(-c2cccnc2)cs1 [Masitinib]
Summary of the method: (§2)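 Lung cancer cell lines in 1536-well plates were kept overnight at 37 °C, then pinned with five library-drug doses (not always all listed) spaced by √10 on vehicle-anchored plates. After 5 days without medium change, cells were fixed, permeabilised and Hoechst-stained in one step, imaged at 4×, and nuclei were counted with MetaXpress. Viability is treated-well nuclei divided by vehicle-well nuclei, taken as the median over plates. Plates passed only with control CV below 25% and at least one doubling.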

[1] = compound: CC1=CC(=CC=C1)NC2=NC(=CS2)C3=CC=NC=C3
Summary of the method: as §2

[2] = compound: CC1=CC(=CC=C1)NC2=NC(=CS2)C3=CC=NC=C3 + CC1(C)CCC(c2ccc(Cl)cc2)=C(CN2CCN(c3ccc(C(=O)NS(=O)(=O)c4ccc(N[C@H](CCN5CCOCC5)CSc5ccccc5)c(S(=O)(=O)C(F)(F)F)c4)cc3)CC2)C1 [Navitoclax] (partner 0.5 µM)
Summary of the method: as §1

Cell Line	relative viability (Masitinib + Phenformin; first compound 0.01 µM)	relative viability (Masitinib + Phenformin; first compound 0.1 µM)	relative viability (Masitinib + Phenformin; first compound 0.3162 µM)	relative viability (Masitinib + Phenformin; first compound 1 µM)	relative viability (Masitinib; 0.01 µM)	relative viability (Masitinib; 0.03162 µM)	relative viability (Masitinib; 0.1 µM)	relative viability (Masitinib; 0.3162 µM)	relative viability (Masitinib; 1 µM)	relative viability ([1]; 0.08 µM)	relative viability ([1]; 0.253 µM)	relative viability ([1]; 0.8 µM)	relative viability ([1]; 2.53 µM)	relative viability ([1]; 8 µM)	relative viability (Masitinib + Phenformin; first compound 0.03162 µM)	relative viability ([2]; first compound 0.08 µM)	relative viability ([2]; first compound 0.253 µM)	relative viability ([2]; first compound 0.8 µM)	relative viability ([2]; first compound 2.53 µM)	relative viability ([2]; first compound 8 µM)
NCI-H522	0.653	0.635	0.775	0.714	1.06	0.815	0.866	1.07	0.974	0.894	0.886	0.931	0.925	1.15	–	–	–	–	–	–
HCC-15	0.448	0.497	0.459	0.405	0.774	0.983	0.836	0.962	0.959	0.916	0.936	1.02	0.915	0.807	0.453	0.698	0.661	0.65	0.615	0.507
A-427	–	–	0.309	0.235	–	0.951	0.69	1.08	0.931	0.864	0.951	0.968	0.859	0.878	0.292	0.955	0.962	0.899	–	0.875
NCI-H23	0.846	0.881	0.781	0.748	0.888	0.926	1.03	0.933	0.916	0.879	0.808	1.01	0.835	0.972	0.734	0.822	0.832	1	0.831	0.999
NCI-H1755	–	0.545	0.597	0.581	–	0.935	0.886	1.02	0.935	0.926	0.942	0.866	0.857	0.697	0.51	0.923	0.937	0.846	0.824	0.679
LU99A	0.868	0.859	0.856	0.703	1.03	0.94	1.09	1.06	0.916	0.877	0.917	0.972	0.997	0.956	0.807	–	0.861	0.838	0.835	0.978
PC-3 [JPC-3]	0.47	0.47	0.46	0.37	0.95	0.951	1.04	1.04	1.02	0.941	0.936	0.927	0.868	0.91	0.429	0.791	0.671	0.719	0.705	0.681
NCI-H1975	0.405	0.422	–	0.408	0.983	0.923	1.06	0.676	0.852	0.798	0.762	0.843	0.714	0.549	0.402	1.16	1.13	0.879	0.895	0.726
NCI-H1703	–	–	–	–	0.866	0.821	0.526	0.32	0.261	0.831	0.977	0.907	0.986	0.946	–	0.92	1.13	1.38	1.26	1.07
HCC-366	–	–	0.572	0.575	0.729	1.14	0.75	0.977	0.994	0.979	0.956	1.03	1.02	0.931	0.59	0.934	1.04	1.04	0.884	0.949
NCI-H1793	0.329	0.405	0.349	0.262	0.886	0.804	0.878	0.978	0.795	0.75	0.801	0.898	0.816	0.841	0.357	–	0.521	0.523	0.438	0.402
NCI-H727	0.641	0.5	0.616	0.44	0.947	0.948	1.08	0.945	0.92	0.698	0.737	0.808	0.791	0.924	0.636	0.458	0.372	0.383	0.345	0.269
RERF-LC-KJ	0.387	0.438	0.447	0.35	0.922	0.943	1.03	0.963	0.829	0.945	0.91	0.834	0.751	0.714	0.451	0.71	0.627	0.631	0.638	0.275
NCI-H1623	0.509	0.564	0.52	0.533	0.982	0.883	0.894	0.889	0.905	0.948	0.886	0.894	0.81	0.84	0.494	–	–	–	–	–
Calu-6	–	–	–	–	0.98	1.04	1.06	0.977	0.985	0.894	0.936	0.873	0.943	0.87	–	0.748	0.685	0.763	0.773	0.711
